The values that follow come from patent US20220348966A1, “SYSTEM AND METHOD FOR INCREASED ALCOHOL TOLERANCE AND PRODUCTION IN YEAST” (The Trustees of Princeton University, priority 2019, published 2022).

Like-named read-outs stand apart in the source and are kept apart here.

In series [1] the test system is gln3Δ strain. It counts as cell-based, S. cerevisiae. Particulars: for tolerance compared to wild type strain: liquid medium. The source says: (§1) The six hypertolerant strains were examined in liquid medium containing heavy alcohols. In this example, the liquid medium contained 1.5% or 1.6% isobutanol, or 8% ethanol.
Tolerance of the gln3Δ strain to other alcohols was explored by measuring its growth in liquid medium containing methanol, 1-propanol, 1-butanol, 2-butanol, tert-butanol, 1-pentanol, 2-methyl-1-butanol, isopentanol, or 1-hexanol.

Series [2] has as its system zwf1Δ strain. It counts as cell-based, S. cerevisiae. To be noted: for sensitivity / cell growth in presence of alcohol compared to wild type: FIG. 5, various alcohols. As to the method: (§2) Growth of 19 hypersensitive strains was measured in liquid SC medium containing 0.6%, 1.0%, or 1.4% isobutanol, or 8% ethanol. These growth experiments were initiated at an OD600 of 0.1, unlike in previous screens, which started with much smaller inoculums (from a 96-pin replicator).
(§3) The sensitivity of gnd1Δ and zwf1Δ strains to other alcohols including methanol, 1-propanol, 1-butanol, 2-butanol, tert-butanol, 1-pentanol, 2-methyl-1-butanol, isopentanol, and 1-hexanol was explored.

In series [3] the test system is gnd1Δ strain. It counts as cell-based, S. cerevisiae. Particulars: for sensitivity / cell growth in presence of alcohol compared to wild type: FIG. 5, various alcohols. The method, then: as §2, §3
Series [4] has as its system gcn3Δ strain. It counts as cell-based, S. cerevisiae. As to the method: (§4) Utilizing the LC50 results, one can screen a gene deletion library (here, the BY4741 library [Giaever et al., 2002; Winzeler et al., 1999]) for changes in cell growth in liquid SC medium containing the heavy alcohol at an amount that is 0.1% or 0.2% (v/v) less than the LC50. Here, 1.4% (v/v) isobutanol was used. […] To quantify these phenotypes, a tolerance factor (TF) was defined as the ratio of the OD600 of cells grown with isobutanol in the medium after 24 h, divided by the OD600 of cells grown in the absence of isobutanol for the same amount of time. Thus, one can classify deletion strains as having increased sensitivity or tolerance to isobutanol based on the comparison of their TF values to that of the wild type strain in, e.g., 1.4% isobutanol measured during the screen. […] To assess the specificity of changes in tolerance to isobutanol, the growth of these selected strains in media containing ethanol can also be measured: 8% for sensitive strains or 9% for tolerant strains.
as §1

Series [5] has as its system nha1Δ strain. Particulars: 8% ethanol. The method, then: as §2, §3
The subject of series [6] is avt3Δ strain. It counts as cell-based, S. cerevisiae. Particulars: FIG. 6.
Description: as §1

The subject of series [7] is ydr391cΔ strain. It counts as cell-based, S. cerevisiae. To be noted: FIG. 6.
Description: as §1

Series [8] concerns gnp1Δ strain. It counts as cell-based, S. cerevisiae. To be noted: FIG. 6.
Description: as §1

The subject of series [9] is vps55Δ strain. It counts as cell-based, S. cerevisiae. Particulars: FIG. 6.
Description: as §1

Series [10] has as its system yeast. To be noted: cited from earlier work.
The test system of series [11] is BY4741 wild type strain. To be noted: for cell growth (OD600): 24 h. As to the method: The Tolerance Factor (TF) is defined as the ratio of the OD600 of cells grown with the heavy alcohol in the medium after 24 h, divided by the OD600 of cells grown in the absence of the heavy alcohol for the same amount of time.
A first example is for the identification of the LC50 (lethal concentration for 50% of cells) of isobutanol for the BY4741 wild type strain of S. cerevisiae, the strain from which a gene deletion library was developed (Giaever et al., 2002; Winzeler et al., 1999). […] The cell growth of BY4741 in synthetic complete (SC) liquid medium containing concentrations of isobutanol ranging from 0.0% to 1.8% (v/v) was monitored by measuring the optical density at 600 nm (OD600) after 24-h cultivation.
as §4
For most screens and analyses of alcohol tolerance, wild type and deletion strains can be cultured in synthetic complete (SC) medium made inhouse (see Table 1) at 30° C., and 2% glucose. Strains overexpressing PPP genes can be cultured in SC medium lacking uracil (SC-Ura) made inhouse.

Series [12] deals with vps34Δ strain. Description: Growth of hypersensitive strains in liquid SC medium. It counts as cell-based, S. cerevisiae. To be noted: 0.6% isobutanol, initial OD600 0.1.
The subject of series [13] is trp5Δ strain. Description: Gene deletion library screen for isobutanol sensitivity. It counts as cell-based, S. cerevisiae. To be noted: second screen, 0.6% and 1.2% isobutanol. The source says: (§5) Here, 1.4% (v/v) isobutanol was used.
(§6) Out of the 164 sensitive strains, the 46 strains that continue to display increased sensitivity to isobutanol at lower concentrations (TF <0.5 in 0.6% isobutanol or TF <0.1 in 1.2% isobutanol) can be categorized as hypersensitive. These strains are highlighted in gray in FIGS. 2A-2C. Among the 36 strains with increased tolerance, 6 continue to display increased tolerance (TF >0.4) in 1.5% isobutanol, which we categorize as hypertolerant (FIG. 3).
(§7) Next, a Gene Ontology (GO) enrichment analysis of genes deleted in the 164 most sensitive and 36 most tolerant strains can be performed. […] In fact, five strains harboring deletions in the TRP gene family, encoding enzymes in tryptophan biosynthesis, show increased isobutanol sensitivity (with trp2Δ, trp3Δ, and trp5Δ being hypersensitive strains). One can examine the increased sensitivity to isobutanol caused by TRP1 deletion because it is an auxotrophic marker in commonly used strains, such as CEN.PK- and SEY6210-derived strains. […] Furthermore, after repairing the TRP1 allele in CEN.PK2-1C and SEY6210, wild-type (BY4741) levels of isobutanol tolerance are recovered.

The test system of series [14] is trp3Δ strain. The series is described as above. It counts as cell-based, S. cerevisiae. To be noted: second screen, 0.6% and 1.2% isobutanol.
Description: as §5, §6, §7

Series [15] relates to trp2Δ strain. The description is as above. It counts as cell-based, S. cerevisiae. To be noted: second screen, 0.6% and 1.2% isobutanol.
Description: as §5, §6, §7

Series [16] deals with gcn4Δ strain. Description: Gene deletion library screen, tolerance factor in liquid SC medium. It counts as cell-based, S. cerevisiae. Particulars: 1.4% isobutanol.
Description: as §5

Series [17] relates to BY4741. Description: Serial dilutions spotted onto SC agar plates. It counts as cell-based, S. cerevisiae. To be noted: SC agar containing 2.4% isobutanol. The source says: To evaluate isobutanol growth inhibition on solid medium, serial dilutions of BY4741 were spotted onto SC agar plates containing 0.0% to 3.0% isobutanol. […] The higher LC50 determined from agar plates may be the result of higher cell tolerance to isobutanol in solid media; however, it could also reflect the difficulty in accurately preparing solid media with specific isobutanol concentrations due to isobutanol evaporation during the pouring of hot agar.

Series [18] concerns pep12Δ strain. Kind of series: Growth of hypersensitive strains in liquid SC medium. It counts as cell-based, S. cerevisiae. Particulars: 0.6% isobutanol, initial OD600 0.1.
Series [19] relates to gln3Δ strain. Description: Growth on SC agar medium. It counts as cell-based, S. cerevisiae. To be noted: 2.7% isobutanol. The source says:
The gln3Δ strain can grow on SC agar medium containing 2.7% isobutanol.

Where [20] appears, read: 0.6% isobutanol, initial OD600 0.1.

As to `CC(C)(C)O` [tert-butanol], the “tolerance compared to wild type strain” value in series [1] (FIG. 7) is recorded as “dramatically enhanced tolerance”.
On the same count and under the same terms, the entry for `CCCCO` [Example 1-butanol, 1-butanol] is “does not statistically increase tolerance”.
In the case of `CCCO` [Example 1-propanol, 1-propanol], in series [1] (FIG. 7), the “tolerance compared to wild type strain” value was “does not statistically increase tolerance”. Further, the “sensitivity / cell growth in presence of alcohol compared to wild type” value in series [2] and in [3] was “neither strain demonstrates significantly increased sensitivity” in each case.
For `CCO` [Ethanol, ethanol], the “sensitivity compared to wild type strain” value in [1] (8% ethanol, FIG. 6) was “at least as sensitive”; in series [4] (8% ethanol, FIG. 6) it was “at least as sensitive”; in [5] it was “no more sensitive”; in [6] (8% ethanol) it was “at least as sensitive”; in [7] (8% ethanol), “at least as sensitive”; in [8] (8% ethanol) it was “at least as sensitive”. The “sensitivity compared to wild type strain” value is reported as “at least as sensitive” in [9] (8% ethanol), “no more sensitive” in series [2] (8% ethanol) and “no more sensitive” in series [3] (8% ethanol). Also, the “tolerance compared to wild type strain” value in series [1] (FIG. 7) was “does not statistically increase tolerance”. The ethanol concentration endured in series [10] (S. cerevisiae) is ≤ 18 % (v/v). Besides, the “sensitivity / cell growth in presence of alcohol compared to wild type” value in series [2] and in series [3] was “neither strain demonstrates significantly increased sensitivity” throughout. In addition, the “Tolerance Factor” value in [11] (8.0% ethanol) worked out at 0.31.
As for `CCCCCCO` [Example 1-hexanol, 1-hexanol], the “tolerance compared to wild type strain” value in series [1] (FIG. 7) is recorded as “does not statistically increase tolerance”.
Same read-out and setting: the entry for `CCC(C)O` (stereo not shown) [Example 2-butanol, 2-butanol] is “smaller, but statistically significant, increase in tolerance”.
In the case of `CCC(C)CO` (stereo not shown) [2-methyl-1-butanol], in [1] (0.55% 2-methyl-1-butanol, FIG. 7), the “OD600 relative to wild type strain” value is given as 11.4 fold. Further, the “tolerance compared to wild type strain” value in series [1] (FIG. 7) is given as “dramatically enhanced tolerance”.
Take `CO` [methanol]: in series [1] (FIG. 7), the “tolerance compared to wild type strain” value is “does not statistically increase tolerance”. Moreover, the “sensitivity / cell growth in presence of alcohol compared to wild type” value in series [2] and in series [3] was “neither strain demonstrates significantly increased sensitivity” throughout.
Regarding `CCCCCO` [Example 1-pentanol, 1-pentanol], the “tolerance compared to wild type strain” value in series [1] (FIG. 7) is reported as “does not statistically increase tolerance”.
`CC(C)CO` [Isobutanol, 2-methyl-1-propanol]: the “growth compared to wild type” value in series [1] (1.5% isobutanol, FIG. 6) is recorded as “grow better than the wild type”; in series [4] (1.5% isobutanol, FIG. 6) it was “grow better than the wild type”; in series [6] (1.5% isobutanol), “grow better than the wild type”; in [7] (1.5% isobutanol), “grow better than the wild type”; in series [8] (1.5% isobutanol), “grow better than the wild type”; in series [9] (1.5% isobutanol) it was “grow better than the wild type”. In addition, the “tolerance compared to wild type” value in series [1] (1.6% isobutanol, FIG. 6) is listed as “enhanced tolerance”; in series [4] (1.6% isobutanol, FIG. 6), “enhanced tolerance”; in series [8] (1.6% isobutanol), “enhanced tolerance”; in series [9] (1.6% isobutanol), “enhanced tolerance”. The “increase in isobutanol tolerance compared to wild type” value in [1] (FIG. 7) was found to be 4.04 fold. The “tolerance compared to wild type strain” value in series [1] (FIG. 7) is “dramatically enhanced tolerance”. In addition, the “Tolerance Factor” value in [4] (1.4% isobutanol) is on record as 0.98; in series [12], “less than 0.3”; in series [16] it was 0.86; in series [18], “less than 0.3”; in series [2] (setting [20]), “less than 0.3”; in [3] (setting [20]), “less than 0.3”. The “Tolerance Factor” value in series [11] (0.6% isobutanol) was 0.92; in series [11] (1.2% isobutanol) it was 0.72; in series [11] (1.4% isobutanol), 0.38; in series [11] (1.5% isobutanol), 0.19; in [11] (1.6% isobutanol), 0.11. Also, the isobutanol sensitivity class entry in series [13], in series [14] and in series [15] was “hypersensitive (TF <0.5 in 0.6% isobutanol or TF <0.1 in 1.2% isobutanol)” in each case. Also, the “cell growth on agar plates” value in series [17] is “still observable but noticeably inhibited”. Further, the “toxicity for yeast relative to ethanol” value in [10] is 10 times. For the same molecule, the “growth on SC agar medium” value in [19] was “can grow”. For the same molecule, the “LC50 (lethal concentration for 50% of cells)” value in series [11] (SC liquid medium, OD600 after 24-h cultivation) is ~1.5 % (v/v). For the same molecule, the “cell growth (OD600)” value is recorded as “moderate inhibition” in series [11] (isobutanol 1.4% and 1.5%); “significantly inhibited” in series [11] (isobutanol concentrations above 1.6%); “marginally affected” in [11] (isobutanol concentrations below 1.3%).
On to `CC(C)CCO` [isopentanol, 3-methyl-1-butanol], for which, in [1] (FIG. 7), the “tolerance compared to wild type strain” value is reported as “dramatically enhanced tolerance”.
